These are literature values, as cited in patent US4316892A, “2,6-C-Dimethyltyrosine^1 -D-amino acid^2 -ε-amino caproic and γ aminobutyric acid^5 derivatives of methionine enkephalin” (G. D. Searle & Co., priority 1980, dated 1982).

One series relates to brain opiate receptor. Conditions: partially purified brain opiate receptor; Bradbury et al.
The conditions of series [1]: bioassays for opiate activity.
For series [2] the following is noted: injected directly into the brain of the rat; Belluzi et al.

On to methionine enkephalin, for which the “binding to brain opiate receptor sites” value with brain opiate receptor is on record as “binds stereospecifically”. The opiate activity entry in series [1] is given as “highly active”. Further, in series [2], the analgesic activity result is listed as “weak, fleeting analgesic activity”.
